Measurements taken from patent EP4722213A1, “NITROGEN-CONTAINING FUNCTIONAL GROUP-SUBSTITUTED PYRIDAZINOPYRIDONE DERIVATIVE AND USE THEREOF” (Sichuan Huiyu Pharmaceutical Co., Ltd., priority 2023, dated 2024).
Where a name gives a salt, the structure may show the parent alone.

The compounds below were run against T1, SOS1 (Homo sapiens, UniProt Q07889) (assay: biochemical).
T1 sequence (Q07889 1-1333): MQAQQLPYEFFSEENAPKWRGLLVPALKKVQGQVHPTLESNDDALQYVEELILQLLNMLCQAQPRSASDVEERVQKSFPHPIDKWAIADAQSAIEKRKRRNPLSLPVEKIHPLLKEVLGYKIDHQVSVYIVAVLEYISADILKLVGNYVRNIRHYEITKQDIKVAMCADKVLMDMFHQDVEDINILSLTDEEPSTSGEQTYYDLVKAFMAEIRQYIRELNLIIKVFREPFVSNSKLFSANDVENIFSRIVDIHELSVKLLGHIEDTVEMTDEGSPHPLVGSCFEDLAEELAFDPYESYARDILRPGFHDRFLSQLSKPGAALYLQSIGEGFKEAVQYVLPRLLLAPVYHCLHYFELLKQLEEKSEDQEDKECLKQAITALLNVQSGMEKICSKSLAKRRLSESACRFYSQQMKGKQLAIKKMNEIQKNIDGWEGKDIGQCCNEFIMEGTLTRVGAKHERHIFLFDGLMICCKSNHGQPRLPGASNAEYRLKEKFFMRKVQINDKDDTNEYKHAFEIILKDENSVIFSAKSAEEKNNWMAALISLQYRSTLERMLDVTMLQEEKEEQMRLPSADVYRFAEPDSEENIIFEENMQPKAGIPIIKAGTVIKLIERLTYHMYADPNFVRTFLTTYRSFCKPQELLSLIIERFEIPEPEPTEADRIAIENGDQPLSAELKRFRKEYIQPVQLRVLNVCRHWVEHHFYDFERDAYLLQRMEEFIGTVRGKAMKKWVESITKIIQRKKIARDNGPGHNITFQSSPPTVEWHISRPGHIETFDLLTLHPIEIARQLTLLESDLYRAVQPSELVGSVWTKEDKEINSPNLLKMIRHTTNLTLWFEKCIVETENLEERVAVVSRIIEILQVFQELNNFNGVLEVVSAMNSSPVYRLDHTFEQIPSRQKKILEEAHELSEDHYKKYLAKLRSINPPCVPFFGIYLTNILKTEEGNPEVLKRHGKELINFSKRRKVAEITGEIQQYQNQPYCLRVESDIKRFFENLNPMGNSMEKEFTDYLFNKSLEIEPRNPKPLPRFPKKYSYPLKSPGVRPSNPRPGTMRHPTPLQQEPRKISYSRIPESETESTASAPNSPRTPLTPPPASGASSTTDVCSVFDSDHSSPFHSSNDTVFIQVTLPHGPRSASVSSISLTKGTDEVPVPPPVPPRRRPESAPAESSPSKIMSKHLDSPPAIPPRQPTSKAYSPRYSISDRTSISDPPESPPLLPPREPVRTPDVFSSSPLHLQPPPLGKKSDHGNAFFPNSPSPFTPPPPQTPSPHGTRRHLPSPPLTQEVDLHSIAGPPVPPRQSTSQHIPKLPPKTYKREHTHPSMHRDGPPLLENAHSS

Row | SMILES | IC50
1 | C[C@@H](Nc1nnc(N2CCN(C)CC2)c2cc(=O)n(C3(C)CC3)cc12)c1cccc(S(F)(F)(F)(F)F)c1 [Example 214, (R)-6-(1-methylcyclopropyl)-1-(4-methylpiperazin-1-yl)-4-((1-(3-(pentafluoro-λ^6-sulfaneyl)phenyl)ethyl)amino)pyrido[3,4-d]pyridazin-7(6H)-one formate] | 5 nM
2 | C[C@@H](Nc1nnc(NC23CC(C2)C3)c2cc(=O)n(C3(C)CC3)cc12)c1cccc(C(F)F)c1F [Example 125, (R)-1-(bicyclo[1.1.1]pentan-1-ylamino)-4-((1-(3-(difluoromethyl)-2-fluorophenyl)ethyl)amino)-6-(1-methylcyclopropyl) pyrido[3,4-d]pyridazin-7(6H)-one] | 14.1 nM
3 | Cc1c(C#N)cccc1[C@@H](C)Nc1nnc(N2CC(F)(F)C2)c2cc(=O)n(C3(C)CC3)cc12 [Example 48, (R)-3-(1-((1-(3,3-difluoroazetidin-1-yl)-6-(1-methylcyclopropyl)-7-oxo-6,7-dihydropyrido[3,4-d]pyridazin-4-yl)amino)ethyl)-2-methylbenzonitrile] | 46.5 nM
4 | Cc1c([C@@H](C)Nc2nnc(N3CCC(F)(F)CC3)c3cc(=O)n(C4CC4)cc23)cccc1C(F)(F)F [Example 58, (R)-6-cyclopropyl-1-(4,4-difluoropiperidin-1-yl)-4-((1-(2-methyl-3-(trifluoromethyl)phenyl)ethyl)amino)pyr ido[3,4-d]pyridazin-7(6H)-one] | 100 nM
5 | C[C@@H](Nc1nnc(N2CC3CC3C2)c2cc(=O)n(C3CC3)cc12)c1cccc(C(F)F)c1F (stereo partly drawn) [Example 18, 1-(3-azabicyclo[3.1.0]hexan-3-yl)-6-cyclopropyl-4-(((R)-1-(3-(difluoromethyl)-2-fluorophenyl)ethyl)amino)pyrido[3,4-d]pyridazin-7(6H)-one] | 5.7 nM
6 | Cc1c(C#N)cccc1[C@@H](C)Nc1nnc(N(C)C)c2cc(=O)n(C3(C)CC3)cc12 [Example 84, (R)-3-(1-((1-(dimethylamino)-6-(1-methylcyclopropyl)-7-oxo-6,7-dihydropyrido[3,4-d]pyridazin-4-yl)amino)ethyl)-2-methylbenzonitrile] | 18.7 nM
7 | C[C@@H](Nc1nnc(N2CCN(C)CC2)c2cc(=O)n(C3(C)CC3)cc12)c1cccc(C(F)(F)CO)c1 [Example 226, (R)-4-((1-(3-(1,1-difluoro-2-hydroxyethyl)phenyl)ethyl)amino)-6-(1-methylcyclopropyl)-1-(4-methylpiperazin-1-yl)pyrido[3,4-d]pyridazin-7(6H)-one] | 4.3 nM
8 | C[C@@H](Nc1nnc(N2CCN(CC3CC3)CC2)c2cc(=O)n(C3CC(F)(F)C3)cc12)c1cccc(C(F)F)c1F [Example 107, (R)-6-(3,3-difluorocyclobutyl)-4-((1-(3-(difluoromethyl)-2-fluorophenyl)ethyl)amino)-1-(4-(cyclopropylmethyl)piperazin-1-yl)pyrido[3,4-d]pyridazin-7(6H)-one] | 4.2 nM
9 | Cc1c(C#N)cccc1[C@@H](C)Nc1nnc(N2CCN(C)CC2)c2cc(=O)n(C3(C)CC3)cc12 [Example 82, (R)-2-methyl-3-(1-((6-(1-methylcyclopropyl)-1-(4-methylpiperazin-1-yl)-7-oxo-6,7-dihydropyrido[3,4-d]pyridazin-4-yl)amino)ethyl)benzonitrile] | 9 nM
10 | C[C@@H](Nc1nnc(N2CCCCC2)c2cc(=O)n(C3(C)CC3)cc12)c1cccc(C(F)F)c1F [Example 6, (R)-4-((1-(3-(difluoromethyl)-2-fluorophenyl)ethyl)amino)-6-(1-methylcyclopropyl)-1-(piperidin-1-yl)pyrido[3,4-d]pyridazin-7(6H)-one] | 14.8 nM
11 | C[C@@H](Nc1nnc(N2CCC3(CCCO3)CC2)c2cc(=O)n(C3(C)CC3)cc12)c1cccc(C(F)F)c1F [Example 199, (R)-4-((1-(3-(difluoromethyl)-2-fluorophenyl)ethyl)amino)-6-(1-methylcyclopropyl)-1-(1-oxa-8-azaspiro[4.5]decan-8-yl)pyrido[3,4-d]pyridazin-7(6H)-one] | 12.5 nM
12 | C[C@@H](Nc1nnc(N2CCN(C3CC3)CC2)c2cc(=O)n(C3(C)CC3)cc12)c1cccc(C(F)F)c1F [Example 218, (R)-1-(4-cyclopropylpiperazin-1-yl)-4-((1-(3-(difluoromethyl)-2-fluorophenyl)ethyl)amino)-6-(1-methylcyclopropyl) pyrido[3,4-d]pyridazin-7(6H)-one] | 6 nM
13 | Cc1c(C(F)F)cccc1[C@@H](C)Nc1nnc(N2CCN(C)CC2)c2cc(=O)n(C3CC3)cc12 [Example 210, (R)-6-cyclopropyl-4-((1-(3-(difluoromethyl)-2-methylphenyl)ethyl)amino)-1-(4-methylpiperazin-1-yl)pyrido[3,4-d]pyridazin-7(6H)-one] | 2.7 nM
14 | C[C@@H](Nc1nnc(-n2ccnc2)c2cc(=O)n(C3(C)CC3)cc12)c1cccc(C(F)F)c1F [Example 34, (R)-4-((1-(3-(difluoromethyl)-2-fluorophenyl)ethyl)amino)-1-(1H-imidazol-1-yl)-6-(1-methylcyclopropyl) pyrido[3,4-d]pyridazin-7(6H)-one] | 14.4 nM
15 | C[C@@H](Nc1nnc(N2CCN(C3CC3)CC2)c2cc(=O)n(N3CC4CCCC4C3)cc12)c1cccc(C(F)F)c1F (stereo partly drawn) [Example 142, 4-(((R)-1-(3-(difluoromethyl)-2-fluorophenyl)ethyl)amino)-6-(hexahydrocyclopenta[c]pyrrol-2(1H)-yl)-1-(4-cyclopropylpiperazin-1-yl)-pyrido[3,4-d]pyridazin-7(6H)-one] | 10.6 nM
16 | Cc1c(C#N)cccc1[C@@H](C)Nc1nnc(N2CCC2)c2cc(=O)n(C3(C)CC3)cc12 [Example 70, (R)-3-(1-((1-(azetidin-1-yl)-6-(1-methylcyclopropyl)-7-oxo-6,7-dihydropyrido[3,4-d]pyridazin-4-yl)amino)ethyl)-2-methylbenzonitrile] | 6.7 nM
17 | CC(C)N1CCN(c2nnc(N[C@H](C)c3cccc(C(F)F)c3F)c3cn(N4CC5CCCC5C4)c(=O)cc23)CC1 (stereo partly drawn) [Example 149, 4-(((R)-1-(3-(difluoromethyl)-2-fluorophenyl)ethyl)amino)-6-(hexahydrocyclopenta[c]pyrrol-2(1H)-yl)-1-(4-isopropylpiperazin-1-yl)pyrido[3,4-d]pyridazin-7(6H)-one] | 8.6 nM
18 | CCN1CCN(c2nnc(N[C@H](C)c3cccc(C(F)F)c3F)c3cn(CC)c(=O)cc23)CC1 [Example 117, (R)-4-((1-(3-(difluoromethyl)-2-fluorophenyl)ethyl)amino)-6-ethyl-1-(4-ethylpiperazin-1-yl)pyrido[3,4-d]pyridazin-7(6H)-one] | 8.2 nM
19 | CCN1CCN(c2nnc(N[C@H](C)c3cccc(C#N)c3C)c3cn(N4CC5CCCC5C4)c(=O)cc23)CC1 (stereo partly drawn) [Example 153, 3-((1R)-1-((6-(hexahydrocyclopenta[c]pyrrol-2(1H)-yl)-1-(4-ethylpiperazin-1-yl)-7-oxo-6,7-dihydropyrido[3,4-d]pyridazin-4-yl)amino)ethyl)-2-methylbenzonitrile] | 4.6 nM
20 | Cc1c(C#N)cccc1[C@@H](C)Nc1nnc(N2CCC2)c2cc(=O)n(C3CC3)cc12 [Example 36, (R)-3-(1-((1-(azetidin-1-yl)-6-cyclopropyl-7-oxo-6,7-dihydropyrido[3,4-d]pyridazin-4-yl)amino)ethyl)-2-methylbenzonitrile] | 10.7 nM
21 | Cc1c(C#N)cccc1[C@@H](C)Nc1nnc(N2CCC(F)(F)CC2)c2cc(=O)n(C3(C)CC3)cc12 [Example 47, (R)-3-(1-((1-(4,4-difluoropiperidin-1-yl)-6-(1-methylcyclopropyl)-7-oxo-6,7-dihydropyrido[3,4-d]pyridazin-4-yl)amino)ethyl)-2-methylbenzonitrile] | 66.2 nM
22 | Cc1c(C#N)cccc1[C@@H](C)Nc1nnc(N2CC(F)(F)C2)c2cc(=O)n(C3CC3)cc12 [Example 41, (R)-3-(1-((6-cyclopropyl-1-(3,3-difluoroazetidin-1-yl)-7-oxo-6,7-dihydropyrido[3,4-d]pyridazin-4-yl)amino)ethyl)-2-methylbenzonitrile] | 57.9 nM
